The nature of series [1]: Hydrophobicity of acetaminophen-capped prodrug derivative versus parent. The format is physicochemical. The note with it: acetaminophen-capped derivative vs parent retinoid. An excerpt:
In order to produce an in situ activatable, reversibly hydrophobized prodrug derivatives of a RARγ agonist, a pro-drug can be delivered in a nanoparticle formulation. […] However, the ionizable carboxylic group promotes the partitioning of the compound from the particle to the surrounding aqueous medium. […] The compound would be activatable upon release can increase the stability of the particle-cargo association and help achieve a more lasting and highly localized therapeutic effect. Such constructs are in essence mutual prodrugs or co-drugs, as they regenerate in one step the retinoid compound and acetaminophen, a biologically active “helper” agent, which can play an important supporting role in therapy.

Series [2] has as its system retinoic acid response element (RARE)-Luc. In words: RARE-luc reporter assay in primary mouse chondrocytes. The format is cell-based. The note with it: 10 nM RA added, 0.3% FBS DMEM. On the procedure:
(§1) Primary mouse epiphyseal chondrocytes were isolated from neonatal C57BL/6J mice according to known methods (Yasuhara et al., Lab. Invest. 91(12):1739-1752, 2011) and were plated on 48- or 96-well plates and serum-starved overnight. Cultures were co-transfected with canonical BMP signaling reporter Id1-Luc or retinoic acid response element (RARE)-Luc plasmids and phRG-TK (Promega™) using Lipofectamine LTX™ and Plus™ reagent (Invitrogen™) according to the manufacturer's protocol. Twenty four hours later, cells were treated with rhBMP-2 and/or retinoid and incubated for an additional 24 hours. Cells then were harvested and subjected to dual luciferase assay (Promega™). Firefly luciferase activity was normalized to renilla luciferase activity generated by phRG-TK.
Monitoring activity of RARγ antagonists by RARE reporter assay. Cells were treated with indicated doses of CD2665 or MM11253. To detect the effect of RARγ antagonists in retinoid deficient culture condition (0.3% FBS DMEM), 10 nM RA was added to all cultures in experiments reported in FIG. 8A, FIG. 8B and FIG. 8C.
Primary mouse chondrocytes were isolated and transfected with the RARE-luc reporter gene by reverse transfection according to known methods. Details of the procedure are described in Cong et al., J. Biomater. Sci. Polym. Ed. 26(11):629-643, 2015. […]
For orientation: Reporter assays use an easily measured gene product as a stand-in for the process of interest.

In series [3] the test system is canonical BMP signaling reporter Id1-Luc. In words: Id1-luc reporter assay in primary chondrocytes. The format is cell-based, mouse. The protocol: as §1
Enhancement of BMP-Smad signaling by RARγ antagonists was confirmed by Id1-luc reporter assays. Cells were treated with the indicated doses of CD2665 or MM11253 in the absence or presence of 10 ng/mL rhBMP-2.

The test system of series [4] is pSmad1/5/8-positive cells (canonical BMP signaling). Nature of the series: pSmad1/5/8 immunohistochemistry of ectopic BMP-Matrigel masses. The note with it: 4 mg/kg on day 1 and 3; samples day 5. It counts as in vivo, mouse. The protocol:
Tissue samples were fixed in 4% paraformaldehyde overnight at 4° C., decalcified in 10% EDTA (for calcified samples only), processed for paraffin embedding, and serially sectioned at 6 μm-thickness. Sections were stained with hematoxylin and eosin (HE) for general profiling or with Alcian blue at pH 1.0 and eosin counter-staining. For immunohistochemical analysis, antigen retrieval was performed with 0.1% pepsin in 0.02 N—HCl for 10 minutes, and sections were incubated with blocking solution (0.1 M NaPB, 1% BSA and 10% normal goat serum) for 1 hour and then with primary antibodies against phospho-Smad1/5/8 (Cell Signaling Technology™, 9511, 1:100) overnight at 4° C. The antibodies were visualized using rabbit specific HRP/DAB (ABC™) detection kit (Abcam™, ab64261). After detection, sections were counter-stained with 0.5% methyl green.
There are reciprocal antagonistic relationships between the retinoid and BMP signaling pathways in several biological systems. In addition, the suppression of chondrogenesis and heterotopic ossification by RARγ agonists involved inhibition of canonical BMP signaling. Thus, it became important to determine if and how BMP signaling was affected in the various experimental approaches here. […]
First, the distribution of phosphorylated Smad1/5/8-positive cells was determined within regenerating tibial bone defect areas in wild type and RARγ-null mice (FIG. 6A). […]

Series [5] has as its system ectopic bone formation in RARγ-null mice. In words: Ectopic bone formation model in RARγ-null mice. The format is in vivo, mouse. The note with it: N=8. On the procedure:
To verify specificity of this drug action, similar ectopic bone formation experiments were carried out with RARγ-null mice treated with vehicle or one of the antagonists (CD2665) (FIG. 13E).

The values below come from US11833256B2, “Selective RARγ ligand-loaded nanoparticles for manipulation of targeted bone growth” (University Of Maryland, Baltimore, priority 2017, dated 2023).

For the molecule `CC1(C)CCC(C)(C)c2cc(C3(c4ccc5cc(C(=O)O)ccc5c4)SCCS3)ccc21` [MM11253], in series [1], the “more hydrophobic derivative if modified with acetaminophen” value came to 5 fold. For the same molecule, the “RARE-luc reporter activity (antagonists)” value in series [2] is “inhibited RARE-luc reporter activity”. Also, the Id1-luc reporter activity result in series [3] (absence of exogenous rhBMP-2) is reported as “slightly increased”; in series [3] (presence of 10 ng/mL rhBMP-2), “significantly enhanced”.
On to `COCCOCOc1cc2ccc(-c3ccc(C(=O)O)cc3)cc2cc1C12CC3CC(CC(C3)C1)C2` [CD2665], for which the “pSmad1/5/8-positive cells in ectopic BMP-Matrigel masses” value in series [4] is “more numerous and obvious”. Besides, the “RARE-luc reporter activity (antagonists)” value in series [2] is “inhibited RARE-luc reporter activity”. The Id1-luc reporter activity entry in series [3] (absence of exogenous rhBMP-2) is recorded as “slightly increased”; in series [3] (presence of 10 ng/mL rhBMP-2) it was “significantly enhanced”. Further, the “ectopic bone formation in RARγ-null mice, drug vs vehicle” value in series [5] was “No significant differences in bone formation”.
